Assay results: ChEMBL document CHEMBL1127894, “The synthesis of 2,2,24- trisubstituted oxetanes as new azole antifungal agents” (1994)
Converted amounts (≈) assume the structure as drawn. The source made the active and inactive calls. The rule behind the calls is not given here.

Key:
Candida albicans [1] = test: In vitro inhibition of yeast to mycelial transformation against Candida albicans C-43 at concentration of <0.03 ug/mL at pH 7.0; Active; assay type: functional, organism-based
Candida albicans [2] = test: In vitro inhibition of yeast to mycelial transformation against six strains of Candida albicans at concentration of <0.03 ug/mL at pH 7.0; Active; assay type: functional, organism-based
Candida albicans [3] = test: In vitro inhibition of yeast to mycelial transformation against Candida stellatoidea at concentration of <0.03 ug/mL at pH 7.0; Active; assay type: functional, organism-based
Candida parapsilosis [4] = test: Minimum inhibitory concentration against two strains of Candida parapsilosis; assay type: functional; details: Lodderomyces parapsilosis
Mus musculus [5] = test: Compound was tested for in vivo activity against 1x 10ex6 CFU of Candida albicans C-43 infected mice at dose of 10 mg/kg; Inactive; assay type: functional, organism-based; design: dose 10 mg/kg
Candida albicans [6] = test: Tested for inhibition of yeast to mycelial transformation against Candida albicans C-43 at concentration of <0.03 ug/mL at pH 7.0; Active; assay type: functional, organism-based
Mus musculus [7] = test: Compound was tested for in vivo activity against Candida albicans C-43 in mice at dose of 10 mg/kg; Inactive; assay type: functional, organism-based; design: dose 10 mg/kg
Mus musculus [8] = test: Compound was tested for percent survival against Candida albicans C-43 at 50 mg/kg (iv) in mice; assay type: functional
Candida albicans [9] = test: Tested for inhibition of yeast to mycelial transformation against six strains of Candida albicans at concentration of <0.03 ug/mL at pH 7.0; Active; assay type: functional, organism-based
Candida albicans [10] = test: Tested for inhibition of yeast to mycelial transformation against Candida stellatoidea at concentration of <0.03 ug/mL at pH 7.0; Active; assay type: functional, organism-based
Mus musculus [11] = test: Compound was tested for in vivo activity against Candida albicans C-43 in mice; assay type: functional
Mus musculus [12] = test: Geometri mean CFUs(log 10) for Candida albicans infected mice treated with 50 mg/kg of compound; assay type: functional
Candida albicans [13] = test: Tested for inhibition of yeast to mycelial transformation against six strains of Candida albicans at concentration of 16->64 ug/mL at pH 7.0; Slightly active; assay type: functional, organism-based
Candida albicans [14] = test: Tested for inhibition of yeast to mycelial transformation against Candida albicans C-43 at concentration of 16->64 ug/mL at pH 7.0; Slightly active; assay type: functional, organism-based
Candida parapsilosis [15] = test: Minimum inhibitory concentration against two strains of C. parapsilosis; Inactive; assay type: functional, organism-based
Candida albicans [16] = test: Tested for inhibition of yeast to mycelial transformation against Candida stellatoidea at concentration of 16->64 ug/mL at pH 7.0; Slightly active; assay type: functional, organism-based
Candida albicans [17] = test: Tested for inhibition of yaest to mycelial transformation against Candida albicans C-43 at concentration of <0.03 ug/mL at pH 7.0; Active; assay type: functional, organism-based

Row | Structure (SMILES) | MIC (Candida parapsilosis [4]) [µg/mL] | Activity (Mus musculus [5]) | survival at 50 mg/kg (Mus musculus [8]) [%] | Activity (Candida albicans [9]) | Activity (Candida albicans [10]) | further results
1 | CC(C)N1CCN(c2ccc(OC[C@@H]3C[C@@](Cn4cncn4)(c4ccc(Cl)cc4Cl)O3)cc2)CC1 (racemic) [listing 1 of 2 here] | – | – | – | – | – | Activity (Candida albicans [1]): Active; Activity (Candida albicans [2]): Active; Activity (Candida albicans [3]): Active
2 | CC(C)N1CCN(c2ccc(OC[C@@H]3C[C@@](Cn4cncn4)(c4ccc(Cl)cc4Cl)O3)cc2)CC1 (racemic) [listing 2 of 2 here] | 32 (≈ 62 µM) | – | – | – | – | –
3 | CC(C)N1CCN(c2ccc(OC[C@H]3C[C@@](Cn4cncn4)(c4ccc(Cl)cc4Cl)O3)cc2)CC1 (relative stereo) | – | inactive | – | – | – | –
4 | CC(C)N1CCN(c2ccc(OC[C@@H]3C[C@@](Cn4cncn4)(c4ccc(Cl)cc4Cl)O3)cc2)CC1 (relative stereo) | – | inactive | – | – | – | –
5 | CC(C)N1CCN(c2ccc(OC[C@@H](O)C[C@@](O)(Cn3cncn3)c3ccc(Cl)cc3Cl)cc2)CC1 | 32 (≈ 59.9 µM) | – | 100 | Active | Active | Activity (Candida albicans [6]): Active; Activity (Mus musculus [7]): inactive; Activity (Mus musculus [11]): 4.4
6 | CC(C)N1CCN(c2ccc(OC[C@H]3CC[C@](Cn4cncn4)(c4ccc(Cl)cc4Cl)O3)cc2)CC1 | 0.5 (≈ 0.943 µM) | inactive | 100 | Active | Active | Activity (Candida albicans [6]): Active; Activity (Mus musculus [12]): 4.3
7 | CC(C)N1CCN(c2ccc(OC[C@H]3C[C@@](Cn4cncn4)(c4ccc(Cl)cc4Cl)O3)cc2)CC1 (racemic) | – | – | – | – | – | Activity (Candida albicans [13]): Weak activity; Activity (Candida albicans [14]): Weak activity; MIC (Candida parapsilosis [15]): inactive; Activity (Candida albicans [16]): Weak activity
8 | CC(C)N1CCN(c2ccc(OC[C@H](O)C[C@@](O)(Cn3cncn3)c3ccc(Cl)cc3Cl)cc2)CC1 | 32 (≈ 59.9 µM) | – | 100 | Active | Active | Activity (Candida albicans [17]): Active; Activity (Mus musculus [7]): inactive; Activity (Mus musculus [11]): 4.2
